Drawing on patent US11472803B2, “7-substituted 1-aryl-naphthyridine-3-carboxylic acid amides and use thereof” (Bayer Aktiengesellschaft, priority 2016, dated 2022), this text covers EC50, Emax and Efficiency for 17 compounds.

The test concerns the target T1, human M2 receptor (Homo sapiens, UniProt P08172).
T1 construct: expressed in transfected cells; host or cells: CHO-DUKX (CHO-DUKX-M2-GIRK)
T1 sequence (P08172 1-466): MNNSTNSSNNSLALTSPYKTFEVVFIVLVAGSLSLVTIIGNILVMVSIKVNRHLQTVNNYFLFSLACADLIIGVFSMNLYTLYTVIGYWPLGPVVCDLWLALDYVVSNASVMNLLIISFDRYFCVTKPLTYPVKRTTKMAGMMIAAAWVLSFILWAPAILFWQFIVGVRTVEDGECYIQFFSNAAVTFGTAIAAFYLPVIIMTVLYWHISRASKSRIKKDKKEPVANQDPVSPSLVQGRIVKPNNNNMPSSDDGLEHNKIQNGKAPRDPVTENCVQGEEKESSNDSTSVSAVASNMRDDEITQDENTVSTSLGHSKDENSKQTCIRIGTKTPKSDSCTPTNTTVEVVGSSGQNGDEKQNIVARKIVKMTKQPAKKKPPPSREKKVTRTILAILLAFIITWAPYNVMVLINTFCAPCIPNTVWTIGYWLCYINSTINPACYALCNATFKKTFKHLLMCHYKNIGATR
Put plainly: Functional M2-GIRK1/4 activation test: allosteric potency (EC50) and efficiency at EC20 acetylcholine. It is filed as cell-based. The settings on record: CHO-DUKX-M2-GIRK cells; for EC50: voltage-sensitive dye, acetylcholine at EC20, in some cases mean of two or more determinations; for Emax / Efficiency: boosting of the acetylcholine effect at EC20 acetylcholine concentration. A digest of the protocol: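 Positive allosteric modulation measured as boosting of an EC20 acetylcholine response: hyperpolarization via GIRK1/4 in CHO-DUKX-M2-GIRK cells, monitored by membrane-potential dye fluorescence over 60 s after agonist, compound preadded. Hill-function fit gives EC50 and efficiency.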

Usually EC50 stands for the concentration giving half of the maximal effect. Read a low EC50 as an effect from little substance. One may read the Emax as the maximal effect, on the per cent scale that the assay sets. In the case of `C[C@H](O)CN(C)c1nc2c(cc1F)c(=O)c(C(=O)N[C@@H](C1CC1)C(F)(F)F)cn2-c1c(F)cc(F)cc1F` [Example 64, N-[(1S)-1-Cyclopropyl-2,2,2-trifluoroethyl]-6-fluoro-7-{[(2S)-2-hydroxypropyl](methyl)amino}-4-oxo-1-(2,4,6-trifluorophenyl)-1,4-dihydro-1,8-naphthyridine-3-carboxamide], the EC50 is 12 nM and the Emax is 96%.
Regarding `O=C(NC(C(F)(F)F)C(F)(F)F)c1cn(-c2c(F)cc(F)cc2F)c2nc(N3CCC[C@@H]3CO)c(F)cc2c1=O` [Example 199, 6-Fluoro-N-(1,1,1,3,3,3-hexafluoropropan-2-yl)-7-[(2R)-2-(hydroxymethyl)pyrrolidin-1-yl]-4-oxo-1-(2,4,6-trifluorophenyl)-1,4-dihydro-1,8-naphthyridine-3-carboxamide], the EC50 was 14 nM and the Emax was found to be 100%.
The compound `O=C(NC(c1ccccc1Cl)C(F)(F)F)c1cn(-c2c(F)cc(F)cc2F)c2nc(N3C[C@@H](O)[C@H](O)C3)c(F)cc2c1=O` (mixture of isomers) [Example 131, N-[1-(2-Chlorophenyl)-2,2,2-trifluoroethyl]-7-[(3R,4R)-3,4-dihydroxypyrrolidin-1-yl]-6-fluoro-4-oxo-1-(2,4,6-trifluorophenyl)-1,4-dihydro-1,8-naphthyridine-3-carboxamide] showed an EC50 of 4.6 nM and an Emax of 100%.
The compound `CCC(C)(CC)NC(=O)c1cn(-c2c(F)cc(F)cc2F)c2nc(N3C[C@@H](O)[C@H](O)C3)c(F)cc2c1=O` [Example 88, 7-[(3R,4R)-3,4-Dihydroxypyrrolidin-1-yl]-6-fluoro-N-(3-methylpentan-3-yl)-4-oxo-1-(2,4,6-trifluorophenyl)-1,4-dihydro-1,8-naphthyridine-3-carboxamide] had an EC50 of 2.2 nM and an Emax of 100%.
For the compound `CC(NC(=O)c1cn(-c2c(F)cc(F)cc2F)c2nc(N3CCC4(C3)NC(=O)N(C)C4=O)c(F)cc2c1=O)C(F)(F)C(F)(F)F` (stereo not drawn) [Example 234, 6-Fluoro-7-(3-methyl-2,4-dioxo-1,3,7-triazaspiro[4.4]non-7-yl)-4-oxo-N-[3,3,4,4,4-pentafluorobutan-2-yl]-1-(2,4,6-trifluorophenyl)-1,4-dihydro-1,8-naphthyridine-3-carboxamide], the EC50 was 9.7 nM and the Emax stood at 90%.
Turning to `CCC(NC(=O)c1cn(-c2c(F)cc(F)cc2F)c2nc(N3CC[C@H](O)C3)c(F)cc2c1=O)C(C)C` (single isomer, unassigned) [Example 117], a half-maximal response (EC50) required 6.9 nM and the Emax was determined as 99%.
The corresponding values for `CC(NC(=O)c1cn(-c2c(F)cc(F)cc2F)c2nc(N3CCOCC3)c(F)cc2c1=O)C(F)(F)C(F)(F)F` (racemic) [Example 146, 6-Fluoro-7-(morpholin-4-yl)-4-oxo-N-[3,3,4,4,4-pentafluorobutan-2-yl]-1-(2,4,6-trifluoro-phenyl)-1,4-dihydro-1,8-naphthyridine-3-carboxamide] are 12 nM and 100%.
Consider `O=C(N[C@@H](C1CC1)C(F)(F)F)c1cn(-c2c(F)cc(F)cc2Cl)c2nc(N3C[C@@H](O)[C@H](O)C3)c(F)cc2c1=O` (single isomer, unassigned) [Example 51], for which it took 36 nM to reach a half-maximal effect (EC50) and the Emax amounted to 81%.
With `CC(NC(=O)c1cn(-c2c(F)cc(F)cc2F)c2nc(N3CCC(O)C(O)C3)c(F)cc2c1=O)C(F)(F)C(F)(F)F` (single isomer, unassigned) [Example 183, 7-(3,4-Dihydroxypiperidin-1-yl)-6-fluoro-4-oxo-N-(3,3,4,4,4-pentafluorobutan-2-yl)-1-(2,4,6-trifluorophenyl)-1,4-dihydro-1,8-naphthyridine-3-carboxamide], a half-maximal effect (EC50) was put at 42.3 nM and the Efficiency is reported as 96%.
`CC(NC(=O)c1cn(-c2c(F)cc(F)cc2F)c2nc(N3CCNCC(O)C3)c(F)cc2c1=O)C(F)(F)C(F)(F)F` (stereo not drawn) [Example 200, 6-Fluoro-7-[6-hydroxy-1,4-diazepan-1-yl]-4-oxo-N-[3,3,4,4,4-pentafluorobutan-2-yl]-1-(2,4,6-trifluorophenyl)-1,4-dihydro-1,8-naphthyridine-3-carboxamide] came in with an EC50 of 120 nM and an Emax of 73%.
As for `C[C@H](O)CN(C)c1nc2c(cc1F)c(=O)c(C(=O)N[C@@H](C1CC1)C(F)(F)F)cn2-c1c(F)cc(F)cc1Cl` [Example 72, 1-(2-Chloro-4,6-difluorophenyl)-N-[(1S)-1-cyclopropyl-2,2,2-trifluoroethyl]-6-fluoro-7-{[(2S)-2-hydroxypropyl](methyl)amino}-4-oxo-1,4-dihydro-1,8-naphthyridine-3-carboxamide], the EC50 is 11 nM and the Emax was found to be 89%.
The compound `O=C(Nc1c(Cl)cccc1Cl)c1cn(-c2ccc(F)cc2F)c2ncc(Cl)cc2c1=O` [Example 133, 6-Chloro-N-(2,6-dichlorophenyl)-1-(2,4-difluorophenyl)-4-oxo-1,4-dihydro-1,8-naphthyridine-3-carboxamide] showed an EC50 of 1600 nM and an Emax of 81%.
Compound `CC(NC(=O)c1cn(-c2c(F)cc(F)cc2F)c2nc(N3C[C@@H](O)[C@@H](O)C3)c(F)cc2c1=O)C(F)(F)C(F)(F)F` (mixture of isomers) [Example 92, 7-[(3R,4S)-3,4-Dihydroxypyrrolidin-1-yl]-6-fluoro-4-oxo-N-[3,3,4,4,4-pentafluorobutan-2-yl]-1-(2,4,6-trifluorophenyl)-1,4-dihydro-1,8-naphthyridine-3-carboxamide] showed an Emax of 100%.
Take `O=C(NC(C(F)(F)F)C(F)(F)F)c1cn(-c2c(F)cc(F)cc2F)c2nc(N3CCC(O)(CO)CC3)c(F)cc2c1=O` [Example 189, 6-Fluoro-N-(1,1,1,3,3,3-hexafluoropropan-2-yl)-7-[4-hydroxy-4-(hydroxymethyl)piperidin-1-yl]-4-oxo-1-(2,4,6-trifluorophenyl)-1,4-dihydro-1,8-naphthyridine-3-carboxamide]: the EC50 was 30 nM and the maximal response (Emax) amounted to 100%.
`CCC(NC(=O)c1cn(-c2c(F)cc(F)cc2F)c2nc(N3C[C@@H](O)[C@@H](O)C3)c(F)cc2c1=O)C(C)C` (stereo partly drawn) [Example 106, 7-[(3R,4S)-3,4-Dihydroxypyrrolidin-1-yl]-6-fluoro-V-[2-methylpentan-3-yl]-6-fluoro-4-oxo-1-(2,4,6-trifluorophenyl)-1,4-dihydro-1,8-naphthyridine-3-carboxamide]: the EC50 is 7.2 nM and the Efficiency is reported as 100%.
For `CC(C)C(NC(=O)c1cn(-c2c(F)cc(F)cc2Cl)c2nc(N3C[C@@H](O)[C@H](O)C3)c(F)cc2c1=O)C(F)(F)F` (stereo partly drawn) [Example 136, 1-(2-Chloro-4,6-difluorophenyl)-7-[(3R,4R)-3,4-dihydroxypyrrolidin-1-yl]-6-fluoro-4-oxo-N-[1,1,1-trifluoro-3-methylbutan-2-yl]-1,4-dihydro-1,8-naphthyridine-3-carboxamide], a half-maximal effect (EC50) was put at 2.8 nM and the Emax was determined as 84%.
Compound `CCN(CC(C)O)c1nc2c(cc1F)c(=O)c(C(=O)N[C@@H](C1CC1)C(F)(F)F)cn2-c1c(F)cc(F)cc1F` (single isomer, unassigned) [Example 66] yielded an EC50 of 35 nM and an Emax of 92%.
